Results: patent publication US20090221690A1, “Pharmaceutical Composition for the Prevention/Treatment of Bone Disorders and a Process for the Preparation Thereof” (COUNCIL OF SCIENTIFIC AND INDUSTRIAL RESEARCH, priority 2006, published 2009)

Legend:
primary osteoblasts = assay: MTT assay for cell proliferation, primary osteoblast cell culture; format: cell-based, Balb/c mouse; conditions: 24 h; for Osteoblast cell proliferation (MTT assay): Vehicle 0.60 ± 0.06, Mean±SEM; for osteoblast cell proliferation vs vehicle control: 10^−11 M to 10^−5 M
Description: (§1) Neonatal mouse calvarial cell cultures are prepared as described previously (Endocrinology 139:4743) using slight modification. Briefly, for primary osteoblast cell cultures, frontal and parietal bones from Balb/c mouse neonates (1-3 day old) are digested in 0.1% collagenase/0.1% dispase in α-MEM to obtain 5 sequential digests. The second through fifth digests are combined and grown to confluence at 37° C. and 5% CO2 in air in α-MEM, supplemented with 10% fetal bovine serum (FBS), 2 mM glutamine, 100 U/ml penicillin-streptomycin, Non-essential amino acid solution and sodium pyruvate. The effect of test agents is analysed using the following tests:
MTT assay is a common assay used for assessing cell proliferation where tetrazolium salt is reduced to formazone crystals by the mitochondrial dehydrogenase enzyme, which are then dissolved in DMSO. More the number of metabolically active cells more will be the formazone crystals formed. Briefly, osteoblast cells are maintained in α-MEM medium supplemented with 10% FCS and 1% antibiotic solution in 96 well plate. When the cells attain 40% confluency, they are treated in presence or absence of test agents in 2% FCS supplemented media for 24 h. Twenty-four hours thereafter, MTT salt is added to the cells. After 4 h, the formazone crystals formed are dissolved in DMSO and readings taken at wavelength of 570 nm.
This assay is based on the ability of viable cells to reduce tetrazolium salt to form formazone crystals by mitochondrial dehydrogenase enzyme. In MTT assay, osteoblasts are maintained in α-MEM medium supplemented with 10% FCS and 1% antibiotic solution in 96 well plate. When the cells attain 40% confluency, they are treated in presence or absence of test agents in 2% FCS supplemented media for 24 h. Twenty-four hours thereafter, MTT salt is added to the cells. After 4 h, the formazone crystals formed due to reduction of tetrazolium salt by mitochondrial dehydrogenase enzyme are dissolved in DMSO and readings taken at wavelength of 570 nm. All the five pure compounds nos.

[1] = test system: osteoblasts cultured on sterile bovine bone slices; assay: Mineralisation by osteoblasts cultured on bovine bone slices, Alizarin red staining; format: cell-based, Balb/c mouse; conditions: osteoblasts on bovine bone slices, 15 days; alone or in combination; FIGS. 14 and 15
Description: as §1
(§2) Cells are seeded onto sterile bovine bone slices in 96-well plate and treated with the culture medium containing α-MEM, supplemented with 10% fetal bovine serum, 2 mM glutamine, 100 U/ml penicillin-streptomycin, non-essential amino acid solution, sodium pyruvate, 10 mM P-glycerophosphate and 50 μg/ml ascorbic acid. Culture medium is changed every alternate day. At termination of the culture, cells are washed twice with PBS, fixed in cold 70% ethanol for 1 h and washed once with water and stained with 40 mM Alizarin red (pH 4.7) for 30 min and then washed in PBS to remove excess staining.
as §2, with “In case of osteoblasts” for “Cells are”, “slices, the cells are cultured” for “slices”, “in A-MEM” for “and treated with the culture medium containing α-MEM,”, “p-glycerophosphate” for “P-glycerophosphate”, “acid in the absence or presence of test compounds or their mixtures.” for “acid.”, “culture after 15 days,” for “culture,”

osteoblasts [2] = assay: Quantification of alkaline phosphatase activity in osteoblasts; format: cell-based, Balb/c mouse; design: alkaline phosphatase activity: unit not given here; conditions: 48 h; for alkaline phosphatase activity: Control 1.87 ± 0.20, Mean±SEM; for expression of alkaline phosphatase vs vehicle control: 10^−11 M to 10^−5 M
Description: as §1
p-Nitrophenol phosphate is a colorless substrate which is hydrolysed to colored p-nitrophenol by alkaline phosphatase enzyme. Rate of hydrolysis of p-nitrophenol phosphate is proportional to enzyme present in sample. […] Findings reveal that all the five pure compounds nos.

osteoblast cells = assay: Quantification of mineralization in osteoblasts (Alizarin red, acetic acid extraction); format: cell-based, Balb/c mouse; conditions: osteoblasts cultured 7 days; vs vehicle control; FIG. 13
Description: as §1
For quantification of mineralization which is measured with increased deposition of nascent calcium in osteoblast cells, cells were cultured in the presence of test compounds for 7 days and stained with Alizarin red. Alizarin red was extracted with acetic acid and the intensity of stain, which is directly proportion to the extent of mineralisation, is read at 405 nm.

osteoblasts [3] = assay: Osteogenic activity of isolated compounds based on alkaline phosphatase expression, MTT and mineralisation in vitro; format: cell-based
Description: K051, K052, K054, K080, K082 (isolated from n-butanol soluble fraction) and K095 (isolated from chloroform soluble fraction) (FIGS. 11-15; Tables 10-11).

[4] = test system: Ishikawa (human uterine glandular epithelial carcinoma) cell line; assay: MTT proliferation assay in Ishikawa cell line; format: cell-based; conditions: 10 nM and 1 μM; Ishikawa cells; FIG. 2
[5] = test system: PTH-induced resorption of ^45Ca from chick fetal bones in culture; assay: Chick fetal bone culture assay, bone antiresorbing activity; format: cell-based; conditions: 100 μM; vehicle 1.03; T/C close to unity = no antiresorbing activity
Description: A slight modification of the method of Raisz (Nature 197: 1015-1016, 1963) was employed. Femur bones are isolated from chick embryos on day 11 post-ovulation and cleared of adhering connective tissue by carefully rotating each bone on dry Whatman (I) filter paper under stereomicroscope. Each femur bone is then placed in a drop of PBS before culturing in BGJb medium (pH 7.3) supplemented with penicillin (0.075 mg/ml), streptomycin (0.05 mg/ml), HEPES (2.382 mg/ml) and BSA (1 mg/ml), transferred to BGJb culture medium containing ^45CaCl2 (0.5 μCi/300 μl culture medium) and incubated for 2 h at 37° C. under 5% CO2 in air. Labeled femur bones are then washed with BGJb medium for 24 h at 37° C. under 5% CO2 in air. An aliquot of the medium was withdrawn for the measurement of ^45Ca released into the medium from bone during the first 24 h. […] Radioactivity due to ^45Ca in the spent medium collected at 24, 48 and 96 h of culture and HCl extract at 96 h of culture is quantified by Liquid Scintillation Spectrophotometer in 10 ml of the scintillation fluid (ACS II scintillation cocktail, Amersham Biosciences, UK). […] Bone anti-resorbing activity is expressed as percentage of ^45Ca released into the culture medium and the effect of the agent of invention as percent of the corresponding contra-lateral control or T/C ratio as shown below. […]

[6] = test system: MCF-7 (human cancer breast) cell line; assay: MTT proliferation assay in MCF-7 cell line; format: cell-based; conditions: 10 nM and 1 μM; MCF-7 cells; FIG. 2
rat fetal bones = assay: Total alkaline phosphatase activity in cultured rat fetal bones; format: cell-based; design: dose or concentration left out as unconfirmed; conditions: rat fetal bones cultured for 48 h
Description: […] The homogenate is centrifuged at 5000 rpm for 10 min at 4° C. The supernatant is used as the enzyme solution. The activity of alkaline phosphatase is measured using ALP kit (Roche, Germany) and p-nitrophenol phosphate as substrate.

Compound	osteogenic activity (osteoblasts [3])	Osteoblast cell proliferation (MTT assay) (primary osteoblasts; 10^−5 M)	Osteoblast cell proliferation (MTT assay) (primary osteoblasts; 10^−6 M)	Osteoblast cell proliferation (MTT assay) (primary osteoblasts; 10^−7 M)	Osteoblast cell proliferation (MTT assay) (primary osteoblasts; 10^−8 M)	Osteoblast cell proliferation (MTT assay) (primary osteoblasts; 10^−9 M)	Osteoblast cell proliferation (MTT assay) (primary osteoblasts; 10^−10 M)	osteoblast cell proliferation vs vehicle control (primary osteoblasts)	Osteoblast cell proliferation (MTT assay) (primary osteoblasts; 10^−11 M)	intensity of alizarin red staining (rate of new bone formation) [1]	alkaline phosphatase activity (osteoblasts [2]; 10^−5 M)	alkaline phosphatase activity (osteoblasts [2]; 10^−6 M)	alkaline phosphatase activity (osteoblasts [2]; 10^−7 M)	alkaline phosphatase activity (osteoblasts [2]; 10^−8 M)	alkaline phosphatase activity (osteoblasts [2]; 10^−9 M)	alkaline phosphatase activity (osteoblasts [2]; 10^−10 M)	expression of alkaline phosphatase vs vehicle control (osteoblasts [2])	alkaline phosphatase activity (osteoblasts [2]; 10^−11 M)	mineralisation quantified by alizarin extraction method (osteoblast cells)	proliferation [4]	further results
C[C@]12CC[C@@H]3c4ccc(O)cc4CC[C@H]3[C@@H]1CC[C@@H]2O [Estradiol-17β]																				marked increase in proliferation	T/C ratio (PTH-induced resorption of ^45Ca) [5]: 0.37; proliferation [6]: marked increase in proliferation
O=C(c1ccc(OCCN2CCCCC2)cc1)c1c(-c2ccc(O)cc2)sc2cc(O)ccc12 [Raloxifene]																				increased proliferation was observed	proliferation [6]: increased proliferation was observed in only the Ishikawa cell line
O=P([O-])([O-])OC(CO)CO.[Na+].[Na+] [Sodium β-glycerophosphate]																					Total alkaline phosphatase activity, percent increase (percent of vehicle control group) (rat fetal bones): 28%; Total alkaline phosphatase activity, percent increase (percent of vehicle control group) (rat fetal bones; listed as sodium p-glycerophosphate): 28%

Second part, led by results:

osteogenic activity (osteoblasts [3])	Compound	Osteoblast cell proliferation (MTT assay) (primary osteoblasts; 10^−5 M)	Osteoblast cell proliferation (MTT assay) (primary osteoblasts; 10^−6 M)	Osteoblast cell proliferation (MTT assay) (primary osteoblasts; 10^−7 M)	Osteoblast cell proliferation (MTT assay) (primary osteoblasts; 10^−8 M)	Osteoblast cell proliferation (MTT assay) (primary osteoblasts; 10^−9 M)	Osteoblast cell proliferation (MTT assay) (primary osteoblasts; 10^−10 M)	osteoblast cell proliferation vs vehicle control (primary osteoblasts)	Osteoblast cell proliferation (MTT assay) (primary osteoblasts; 10^−11 M)	intensity of alizarin red staining (rate of new bone formation) [1]	alkaline phosphatase activity (osteoblasts [2]; 10^−5 M)	alkaline phosphatase activity (osteoblasts [2]; 10^−6 M)	alkaline phosphatase activity (osteoblasts [2]; 10^−7 M)	alkaline phosphatase activity (osteoblasts [2]; 10^−8 M)	alkaline phosphatase activity (osteoblasts [2]; 10^−9 M)	alkaline phosphatase activity (osteoblasts [2]; 10^−10 M)	expression of alkaline phosphatase vs vehicle control (osteoblasts [2])	alkaline phosphatase activity (osteoblasts [2]; 10^−11 M)	mineralisation quantified by alizarin extraction method (osteoblast cells)	proliferation [4]	further results
promising osteogenic activity	COc1ccc(-c2coc3cc(O)ccc3c2=O)cc1O [Compound K054, 7, 3′-dihydroxy-4′-methoxyisoflavone]	1.40 ± 0.02	1.24 ± 0.01	1.26 ± 0.07	1.24 ± 0.06	1.06 ± 0.04	0.88 ± 0.09	enhanced osteoblast cell proliferation	0.75 ± 0.06	increased intensity of alizarin red staining	2.65 ± 0.09	3.25 ± 0.07	3.32 ± 0.06	3.35 ± 0.03	3.32 ± 0.09	3.22 ± 0.12	increased expression of alkaline phosphatase	3.01 ± 0.25	enhanced mineralisation		
promising osteogenic activity	COc1ccc(-c2coc3cc(O)ccc3c2=O)cc1 [Compound K080, 7-hydroxy, 4′-methoxy-isoflavone]	1.49 ± 0.03	1.55 ± 0.05	1.43 ± 0.09	1.47 ± 0.02	1.58 ± 0.09	1.35 ± 0.03	enhanced osteoblast cell proliferation	1.25 ± 0.09	increased intensity of alizarin red staining	3.45 ± 0.06	3.40 ± 0.02	3.46 ± 0.06	3.30 ± 0.01	3.33 ± 0.02	3.27 ± 0.08	increased expression of alkaline phosphatase	3.38 ± 0.02	enhanced mineralisation		
